# Experiments:
# [1] = tested on: PGE2 production in LPS-treated RAW 264.7 macrophages; assay: Inhibition of PGE2 production (PGE2 ELISA kit) in LPS-treated RAW264.7 macrophages; assay type: cell-based; conditions: Mus musculus, RAW264.7 macrophages pre-treated 3 h with compound, then LPS (1 μg/mL) 24 h
# Procedure: All isolated compounds (1–9) were evaluated for their anti-inflammatory effects. […] NO is a small molecule which is an intracellular mediator produced in various immune cells. It plays a pivotal role in the physiological and pathological condition of inflammatory symptoms. PGE2 can also regulate the immune and inflammatory responses. In this study, RAW264.7 macrophages were pre-treated for 3 h in the medium containing non-toxic concentrations (Table 2) of each compound (1–9), and then LPS (1 μg/mL) was treated for 24 h. According to the LPS stimulation of RAW264.7 macrophages, production of NO and PGE2 was increased, and the effects of all compounds on the production level of NO and PGE2 were evaluated by the Griess reaction and a PGE2 kit, respectively. […] To evaluate the impact of phenol and resorcinol groups in the curvularin-type metabolites for the anti-inflammatory activity, 5-O-methyl and 5,7,-di-O-methyl derivatives of curvularin (3a and 3b, respectively), as well as 5-O-acetyl and 5,7,-di-O-acetyl derivatives of curvularin (3c and 3d, respectively), were prepared, and the structures of 3a–3d were identified by comparison the ^1H and ^13C-NMR spectroscopic data with those of curvularin (3), and confirmed by their HRESIMS. […] The position of the methoxy group in 3a was confirmed by HMBC correlation between methoxy signal at δH 3.77 (3H, s, 5-OCH3) and δC 161.8 (C-5). The NOESY cross-peaks between acetyl proton ([…]) with H-2, H-4, and H-16 of 3c were used to identify the position of the acetyl group in 3c. […] Further systematic investigations are needed to clarify the structure activity relationship associated with the modification of the aliphatic part of the molecule.
# RPMI1640, fetal bovine serum (FBS), and other tissue culture reagents were purchased from Gibco BRL Co. (Grand Island, NY, USA). All other chemicals were obtained from Sigma-Aldrich Co. (St. Louis, MO, USA). Primary antibodies (COX-2: sc-1745; iNOS: sc-650; IκB-α: sc-371; p-IκB-α: sc-8404; p50: sc-7178; p65: sc-8008, Santa Cruz Biotechnology, Dallas, TX, USA, p-ERK: #9101; ERK: #9102; p-JNK: #9251; JNK: #9252S; p-p38: #9211; p38: 9212S, Cell Signaling Technology, Danvers, MA, USA) and secondary antibodies (mouse: ap124p; goat: ap106p; rabbit: ap132p, Millipore, Billerica MA, USA). Enzyme-linked immunosorbent assay (ELISA) kits for PGE2 were purchased from R and D Systems, Inc. (Minneapolis, MN, USA).
# iNOS = assay: Western blot of iNOS protein expression in LPS-stimulated RAW264.7 macrophages; assay type: cell-based; conditions: pre-treated 3 h, LPS 24 h
# Text: (§1) Therefore, we further tested whether inhibitory effects of 8 against NO and PGE2 productions are correlated with the protein expression of pro-inflammatory enzymes (i.e., iNOS and COX-2, respectively), which are known to catalyze the production of NO and PGEs in LPS-stimulated cells. […] Upon the stimulation by LPS, macrophages can also trigger the production of pro-inflammatory cytokines such as TNF-α, and ILs. The overproduction of these cytokines contributes to the pathogenesis of inflammatory diseases. Thus, we further evaluated the effects of 8 on the mRNA expression of pro-inflammatory cytokines in the LPS-induced cells. The cells were pre-treated with indicated concentration for 3 h, followed by LPS stimulation (1 μg/mL) for 6 h. The mRNA expression of pro-inflammatory cytokines was determined by RT-qPCR.
# (§2) Figure 2 Effects of 8 on protein expression levels of iNOS and COX-2 (a), and mRNA expression levels of IL-1β (Il1b) (b), IL-6 (Il6) (c), and TNF-α (Tnf) (d) in RAW264.7 macrophages. The cells were pre-treated for 3 h with the indicated concentrations of 8 and stimulated for 24 h (a), and 6 h (b–d) with LPS (1 μg/mL). The measurement of western blot analysis and RNA quantification for Il1b, Il6, and Tnf expression were performed as described in the Materials and Methods. […]
# (§3) The proteins of iNOS, COX-2, NF-κB, and MAPKs were measured by Western blot analysis. […]
# COX-2 = assay: Western blot of COX-2 protein expression in LPS-stimulated RAW264.7 macrophages; assay type: cell-based; conditions: pre-treated 3 h, LPS 24 h
# Text: as §1, §2, §3
# IL-1β (Il1b) = assay: RT-qPCR of IL-1β mRNA in LPS-stimulated RAW264.7 macrophages; assay type: cell-based; conditions: pre-treated 3 h, LPS (1 μg/mL) 6 h
# p97 = tested on: p97; set-up: method as in PMID 27223265; conditions: interfering with its ATPase activity; cited from earlier work
# RAW264.7 macrophages = assay: Cell viability (MTT) cytotoxic assay; assay type: cell-based; conditions: RAW264.7 macrophages, MTT
# Procedure: RAW264.7 macrophages were maintained at a density of 5 × 10^5 cells/mL in RPMI1640 medium supplemented with 10% heat-inactivated FBS, penicillin G (100 units/mL), streptomycin ([…]), and L-glutamine (2 mM), and were incubated at 37 °C in a humidified atmosphere containing 5% CO2. For determination of cell viability, cells (1 × 10^5 cells/well in 96-well plates) were incubated with 3-(4,5-dimethylthiazol-2-yl)-2,5-diphenyltetrazolium bromide (MTT) at a final concentration of 0.5 mg/mL for 3 h, and the formazan formed was dissolved in acidic 2-propanol. The optical density was measured at 540 nm with a microplate reader (BioRad, Hercules, CA, USA). The optical density of the formazan formed in control (untreated) cells was considered to represent 100% viability.
# p38 = assay: Western blot of p38 phosphorylation in LPS-treated RAW264.7 macrophages; assay type: cell-based; conditions: pre-treated 3 h, LPS (1 μg/mL) 30 min
# Procedure: Figure 4 Effects of 8 on p38 (a), JNK (b), and ERK (c) phosphorylation in RAW264.7 macrophages. Cells were pre-treated with the indicated concentrations of 8 for 3 h and stimulated for 30 min with LPS (1 μg/mL). Cell extracts were subjected to Western blotting with antibodies specific for phosphorylated-p38 (p-p38), phosphorylated JNK (p-JNK), or phosphorylated ERK1/2 (p-ERK). Membranes were stripped and re-probed to measure the total abundance of each MAPK as a control measurement. Representative blots from three independent experiments are shown.
# The proteins of iNOS, COX-2, NF-κB, and MAPKs were measured by Western blot analysis. The details of procedures for Western blot analysis were described previously.
# IL-6 (Il6) = assay: RT-qPCR of IL-6 mRNA in LPS-stimulated RAW264.7 macrophages; assay type: cell-based; conditions: pre-treated 3 h, LPS (1 μg/mL) 6 h
smiles,measurement,setting,value
"C[C@H]1CCC/C=C/C(=O)c2c(O)cc(O)cc2CC(=O)O1 [Compound 8, (10E,15S)-10,11-dehydrocurvularin]",IC50,[1],2700 ± 400 nM
same,iNOS protein expression,iNOS,attenuation of the excessive protein expression of iNOS and COX-2 in a dose-dependent manner
same,COX-2 protein expression,COX-2,attenuation of the excessive protein expression of iNOS and COX-2 in a dose-dependent manner
same,mRNA expression of IL-1β,IL-1β (Il1b),"markedly suppressed the mRNA expression of IL-1β, IL-6, and TNF-α in a dose-dependent manner"
same,inhibition of p97,p97,covalent inhibitor of p97
same,Cytotoxicity (the maximum concentration not affecting cell viability),RAW264.7 macrophages,20 µM
same,LPS-induced phosphorylation of p38,p38,did not suppress these phosphorylations
same,mRNA expression of IL-6,IL-6 (Il6),"markedly suppressed the mRNA expression of IL-1β, IL-6, and TNF-α in a dose-dependent manner"

# — publication PMC5618421, “Anti-Inflammatory Effects of Curvularin-Type Metabolites from a Marine-Derived Fungal Strain Penicillium sp. SF-5859 in Lipopolysaccharide-Induced RAW264.7 Macrophages” (Marine Drugs, 2017)
